Key:
human Nav1.7 = human Nav1.7 (Homo sapiens (Human), UniProt Q15858); assay: Human Nav1.7 inhibitory activity evaluation (automated patch clamp QPatch16X, HEK293A cells stably expressing human Nav1.7 and human Navβ1); type: cell-based; details: HEK293A cells stably expressing human Nav1.7 and human Navβ1, automated patch clamp QPatch16X
How it was run: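 QPatch16X whole-cell recordings at room temperature from HEK293A cells stably expressing human Nav1.7 with Navβ1, CsF-based internal solution, pH 7.4 external, 0.1% DMSO. From −100 mV holding, protocol included a 15 s hold at a potential inactivating ~30-40% of channels; IC50 from inward current at the second −10 mV pulse.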

human Nav1.5 = human Nav1.5 (Homo sapiens (Human), UniProt Q14524); assay: Human Nav1.5 inhibitory activity evaluation (automated patch clamp QPatch16X, HEK293 cells stably expressing human Nav1.5); type: cell-based; details: HEK293 cells stably expressing human Nav1.5, automated patch clamp QPatch16X
Chain of human Nav1.5 (Q14524 whole entry): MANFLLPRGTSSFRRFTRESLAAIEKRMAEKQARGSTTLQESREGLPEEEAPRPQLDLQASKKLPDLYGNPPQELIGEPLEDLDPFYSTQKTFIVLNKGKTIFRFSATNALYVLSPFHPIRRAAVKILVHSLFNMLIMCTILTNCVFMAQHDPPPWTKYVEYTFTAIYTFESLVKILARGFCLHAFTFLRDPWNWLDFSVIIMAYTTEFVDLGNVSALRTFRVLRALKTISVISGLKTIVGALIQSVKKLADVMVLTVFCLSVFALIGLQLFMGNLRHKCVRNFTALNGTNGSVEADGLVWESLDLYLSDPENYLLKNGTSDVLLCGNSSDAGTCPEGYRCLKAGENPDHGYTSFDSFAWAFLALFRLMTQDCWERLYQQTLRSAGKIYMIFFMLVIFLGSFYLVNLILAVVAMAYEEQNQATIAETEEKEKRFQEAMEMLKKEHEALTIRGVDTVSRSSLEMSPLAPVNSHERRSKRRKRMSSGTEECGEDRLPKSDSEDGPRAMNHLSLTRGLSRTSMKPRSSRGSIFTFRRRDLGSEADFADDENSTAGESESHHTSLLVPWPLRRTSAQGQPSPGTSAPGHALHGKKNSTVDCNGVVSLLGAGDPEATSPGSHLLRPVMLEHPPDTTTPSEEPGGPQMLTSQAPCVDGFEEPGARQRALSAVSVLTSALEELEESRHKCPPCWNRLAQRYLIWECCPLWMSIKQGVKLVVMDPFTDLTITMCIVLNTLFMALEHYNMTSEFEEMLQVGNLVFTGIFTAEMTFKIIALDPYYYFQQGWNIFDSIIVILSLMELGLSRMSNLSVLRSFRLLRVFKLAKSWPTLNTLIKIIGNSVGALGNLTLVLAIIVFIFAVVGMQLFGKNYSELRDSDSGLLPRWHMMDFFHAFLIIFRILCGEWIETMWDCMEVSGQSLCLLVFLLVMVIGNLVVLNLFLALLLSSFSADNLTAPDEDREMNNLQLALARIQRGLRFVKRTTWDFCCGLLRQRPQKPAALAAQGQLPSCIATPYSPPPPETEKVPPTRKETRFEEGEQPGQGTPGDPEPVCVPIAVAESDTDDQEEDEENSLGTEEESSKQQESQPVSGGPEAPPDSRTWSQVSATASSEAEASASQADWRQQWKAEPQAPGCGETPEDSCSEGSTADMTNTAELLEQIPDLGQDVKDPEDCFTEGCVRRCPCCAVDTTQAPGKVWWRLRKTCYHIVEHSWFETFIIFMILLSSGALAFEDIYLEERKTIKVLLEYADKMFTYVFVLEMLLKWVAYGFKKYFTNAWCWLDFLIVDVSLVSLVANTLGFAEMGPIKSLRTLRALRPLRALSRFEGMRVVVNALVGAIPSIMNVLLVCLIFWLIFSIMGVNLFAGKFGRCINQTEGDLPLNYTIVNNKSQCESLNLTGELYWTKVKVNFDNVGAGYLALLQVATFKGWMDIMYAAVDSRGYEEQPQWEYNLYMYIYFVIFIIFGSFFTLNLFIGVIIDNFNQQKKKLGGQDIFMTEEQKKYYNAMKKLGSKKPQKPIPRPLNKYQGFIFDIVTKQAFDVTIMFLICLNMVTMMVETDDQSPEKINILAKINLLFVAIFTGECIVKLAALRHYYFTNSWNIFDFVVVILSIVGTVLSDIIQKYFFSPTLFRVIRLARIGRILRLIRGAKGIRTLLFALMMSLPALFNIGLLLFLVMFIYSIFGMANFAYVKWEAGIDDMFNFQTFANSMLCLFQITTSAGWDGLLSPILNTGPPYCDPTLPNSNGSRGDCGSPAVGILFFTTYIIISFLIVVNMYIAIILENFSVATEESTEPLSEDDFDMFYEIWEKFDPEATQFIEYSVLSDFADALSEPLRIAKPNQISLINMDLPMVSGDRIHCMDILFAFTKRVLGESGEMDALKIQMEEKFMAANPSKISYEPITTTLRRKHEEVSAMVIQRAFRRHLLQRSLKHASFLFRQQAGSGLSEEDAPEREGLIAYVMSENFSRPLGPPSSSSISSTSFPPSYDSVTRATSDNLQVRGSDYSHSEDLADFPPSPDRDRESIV
How it was run: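 Whole-cell automated patch clamp at room temperature on HEK293 stably expressing human Nav1.5; holding −80 mV, 20 consecutive cardiomyocyte action-potential-like test pulses before and after compound (0.1% DMSO). Inhibition measured on inward current at 20th pulse; IC50 from concentration-response curve.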

Chain of human Nav1.7 (Q15858 whole entry): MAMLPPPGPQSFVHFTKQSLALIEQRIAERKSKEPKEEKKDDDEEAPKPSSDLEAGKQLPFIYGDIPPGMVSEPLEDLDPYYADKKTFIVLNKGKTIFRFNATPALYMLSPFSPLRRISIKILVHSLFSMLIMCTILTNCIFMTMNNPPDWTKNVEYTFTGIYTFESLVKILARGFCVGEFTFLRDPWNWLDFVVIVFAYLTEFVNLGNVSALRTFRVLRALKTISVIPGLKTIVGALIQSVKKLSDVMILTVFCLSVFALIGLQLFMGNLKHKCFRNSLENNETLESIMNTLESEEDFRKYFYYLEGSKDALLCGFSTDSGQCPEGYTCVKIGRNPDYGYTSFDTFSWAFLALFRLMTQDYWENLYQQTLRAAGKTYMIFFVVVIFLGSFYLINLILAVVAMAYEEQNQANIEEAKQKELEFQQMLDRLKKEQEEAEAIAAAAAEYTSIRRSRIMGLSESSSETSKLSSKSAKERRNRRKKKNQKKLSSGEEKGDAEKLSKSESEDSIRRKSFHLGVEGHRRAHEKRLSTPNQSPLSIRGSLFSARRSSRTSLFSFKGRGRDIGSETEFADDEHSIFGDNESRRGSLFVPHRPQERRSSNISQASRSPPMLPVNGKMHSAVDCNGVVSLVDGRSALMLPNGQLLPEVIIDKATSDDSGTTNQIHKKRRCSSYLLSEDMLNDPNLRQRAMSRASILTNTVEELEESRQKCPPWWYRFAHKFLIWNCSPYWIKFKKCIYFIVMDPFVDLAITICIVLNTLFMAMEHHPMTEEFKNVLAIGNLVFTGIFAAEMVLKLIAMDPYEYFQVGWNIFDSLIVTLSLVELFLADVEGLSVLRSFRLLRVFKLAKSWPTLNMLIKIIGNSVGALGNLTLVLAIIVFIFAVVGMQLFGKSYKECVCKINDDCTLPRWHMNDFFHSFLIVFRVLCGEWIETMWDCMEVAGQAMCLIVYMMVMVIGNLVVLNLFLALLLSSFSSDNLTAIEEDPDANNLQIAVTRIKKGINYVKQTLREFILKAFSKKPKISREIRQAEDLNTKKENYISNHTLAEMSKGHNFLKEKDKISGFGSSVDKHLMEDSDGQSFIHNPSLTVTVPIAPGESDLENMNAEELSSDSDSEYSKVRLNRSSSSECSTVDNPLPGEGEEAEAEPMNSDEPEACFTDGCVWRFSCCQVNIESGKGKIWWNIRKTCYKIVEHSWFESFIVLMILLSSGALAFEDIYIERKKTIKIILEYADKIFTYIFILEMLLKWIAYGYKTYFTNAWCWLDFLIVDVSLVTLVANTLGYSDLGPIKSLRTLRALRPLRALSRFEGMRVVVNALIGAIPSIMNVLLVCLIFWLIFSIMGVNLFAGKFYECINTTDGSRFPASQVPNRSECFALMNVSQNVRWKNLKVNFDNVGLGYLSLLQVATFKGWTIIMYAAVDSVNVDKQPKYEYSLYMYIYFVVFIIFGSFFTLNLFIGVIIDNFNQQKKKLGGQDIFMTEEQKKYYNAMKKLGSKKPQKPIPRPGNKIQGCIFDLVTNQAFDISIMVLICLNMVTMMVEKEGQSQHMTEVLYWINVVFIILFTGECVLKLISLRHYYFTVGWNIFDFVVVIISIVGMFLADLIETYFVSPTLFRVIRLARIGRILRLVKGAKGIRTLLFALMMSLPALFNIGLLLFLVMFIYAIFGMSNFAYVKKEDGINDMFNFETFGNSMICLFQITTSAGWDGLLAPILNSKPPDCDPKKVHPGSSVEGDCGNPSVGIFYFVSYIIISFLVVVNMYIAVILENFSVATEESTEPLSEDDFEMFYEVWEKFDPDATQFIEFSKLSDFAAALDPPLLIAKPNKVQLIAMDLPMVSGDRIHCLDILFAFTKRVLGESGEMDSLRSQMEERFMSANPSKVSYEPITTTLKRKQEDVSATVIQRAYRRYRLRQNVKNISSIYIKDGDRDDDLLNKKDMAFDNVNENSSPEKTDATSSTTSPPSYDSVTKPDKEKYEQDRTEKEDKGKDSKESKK
Chain of human Nav1.7 (Q07699 19-218 partner): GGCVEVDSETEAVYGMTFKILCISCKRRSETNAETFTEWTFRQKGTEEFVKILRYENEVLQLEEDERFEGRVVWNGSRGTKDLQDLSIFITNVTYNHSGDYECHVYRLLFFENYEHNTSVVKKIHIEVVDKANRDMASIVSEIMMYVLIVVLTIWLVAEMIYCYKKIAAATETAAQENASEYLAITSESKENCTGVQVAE

| IC50 (human Nav1.7) [nM] | Compound | IC50 (human Nav1.5) [nM] |
| --- | --- | --- |
| < 1000 | CC(C)(C)C1CCc2nc(C(=O)N[C@H]3COc4ccccc4C3)cn2C1 (stereo partly drawn) [Example 36] | ≥ 3000 |
| < 10000 | O=C(N[C@H]1COc2ccc(Cl)cc2C1)c1cn2c(n1)CCC(OCC(F)(F)F)C2 (stereo partly drawn) [Example 38] | ≥ 3000 |
| < 10000 | CC(C)COC1CCc2nc(C(=O)N[C@H]3COc4ccccc4C3)cn2C1 (stereo partly drawn) [Example 41] | ≥ 3000 |
| < 10000 | Cc1ccc(C2Cn3cc(C(=O)N[C@H]4COc5ccccc5C4)nc3CN2)s1 (stereo partly drawn) [Example 43] | ≥ 3000 |
| < 10000 | O=C(N[C@H]1COc2ccccc2C1)c1cn2c(n1)CNC(c1cccc(C(F)(F)F)n1)C2 (stereo partly drawn) [Example 46] | 1000 to 3000 |
| < 10000 | CN1Cc2nc(C(=O)N[C@H]3COc4cccc(F)c4C3)cn2CC1c1cccc(C(F)(F)F)n1 (stereo partly drawn) [Example 47] | ≥ 3000 |
| < 10000 | CC(C)CCC1Cn2cc(C(=O)N[C@H]3COc4ccccc4C3)nc2CN1 (stereo partly drawn) [Example 49] | ≥ 3000 |
| < 1000 | O=C(N[C@H]1COc2ccccc2C1)c1cn2c(n1)CNC(CCC1CCCC1)C2 (stereo partly drawn) [Example 51] | 1000 to 3000 |
| < 1000 | CN1Cc2nc(C(=O)N[C@H]3COc4ccccc4C3)cn2CC1CCC1CCCC1 (stereo partly drawn) [Example 52] | 1000 to 3000 |
| < 1000 | O=C(N[C@H]1COc2ccccc2C1)c1cn2c(n1)CNC(CCCc1ccccc1)C2 (stereo partly drawn) [Example 55] | 1000 to 3000 |
| < 1000 | CN1Cc2nc(C(=O)NC3COc4ccccc4C3)cn2CC1c1ccccc1 (stereo not drawn) [Example 57] | < 1000 |
| < 10000 | CN1Cc2nc(C(=O)NCCc3ccccc3)cn2CC1c1ccccc1 (stereo not drawn) [Example 58] | ≥ 3000 |
| < 10000 | O=C(N[C@H]1COc2ccccc2C1)c1cn2c(n1)CNC(C1CCCC1)C2 (stereo partly drawn) [Example 59] | ≥ 3000 |
| < 10000 | CN1Cc2nc(C(=O)NCCc3cccc(N4CCOCC4)c3)cn2CC1c1ccccc1 (stereo not drawn) [Example 62] | ≥ 3000 |
| < 10000 | O=C(N[C@H]1COc2ccccc2C1)c1nc2n(c1-c1ccccc1)CCOC2 [Example 64] | < 1000 |
| < 1000 | COc1cccc(-c2c(C(=O)N[C@H]3COc4ccc(Cl)cc4C3)nc3n2CCOC3)n1 [Example 65] | < 1000 |
| < 10000 | O=C(N[C@H]1COc2ccc(Cl)cc2C1)c1nc2n(c1-c1ccccn1)CCOC2 [Example 66] | < 1000 |
| < 1000 | O=C(N[C@H]1COc2ccc(C(F)(F)F)cc2C1)c1nc2n(c1-c1ccccn1)CCOC2 [Example 67] | < 1000 |
| < 10000 | Cc1ccccc1C1CCn2nc(C(=O)N[C@H]3COc4ccccc4C3)cc2C1 (stereo partly drawn) [Example 68] | ≥ 3000 |
| < 1000 | O=C(N[C@H]1COc2ccc(Br)cc2C1)c1cc2n(n1)CCC(c1ccccc1F)O2 (stereo partly drawn) [Example 71] | < 1000 |
| < 1000 | N#Cc1ccc2c(c1)C[C@@H](NC(=O)c1cc3n(n1)CCC(c1ccccc1C#N)O3)CO2 (stereo partly drawn) [Example 72] | ≥ 3000 |
| < 1000 | COc1ncccc1C1CCn2nc(C(=O)N[C@H]3COc4ccc(C#N)cc4C3)cc2O1 (stereo partly drawn) [Example 75] | ≥ 3000 |
| < 1000 | CCc1ccc2c(c1)C[C@@H](NC(=O)c1cc3n(n1)CCC(c1ccccc1F)O3)CO2 (stereo partly drawn) [Example 76] | ≥ 3000 |
| < 1000 | O=C(NC1COc2cccc(Cl)c2C1)c1cc2n(n1)CCC(c1ccccc1)O2 (stereo not drawn) [Example 77] | ≥ 3000 |

| IC50 (human Nav1.7) [nM] | Compound | IC50 (human Nav1.5) [nM] |
| --- | --- | --- |
| < 10000 | O=C(NC1COc2cccc(OC(F)(F)F)c2C1)c1cc2n(n1)CCC(c1ccccc1)O2 (stereo not drawn) [Example 78] | ≥ 3000 |
| < 10000 | CCOc1cccc(CCNC(=O)c2cc3n(n2)CCC(c2ccccc2)O3)c1 (stereo not drawn) [Example 79] | ≥ 3000 |
| < 1000 | O=C(N[C@H]1COc2ccc(-c3ccncc3)cc2C1)c1cc2n(n1)CCC(c1ccccc1F)O2 (stereo partly drawn) [Example 80] | ≥ 3000 |
| < 1000 | O=C(N[C@H]1COc2ccc(-c3ccccn3)cc2C1)c1cc2n(n1)CCC(c1ccccc1F)O2 (stereo partly drawn) [Example 81] | ≥ 3000 |
| < 1000 | CCOCc1ccc2c(c1)C[C@@H](NC(=O)c1cc3n(n1)CCC(c1ccccc1F)O3)CO2 (stereo partly drawn) [Example 83] | 1000 to 3000 |
| < 10000 | O=C(N[C@H]1COc2ccc(COC3CCOCC3)cc2C1)c1cc2n(n1)CCC(c1ccccc1F)O2 (stereo partly drawn) [Example 84] | ≥ 3000 |
| < 1000 | CC1CCn2nc(C(=O)N[C@H]3COc4ccc(Cl)cc4C3)cc2O1 (stereo partly drawn) [Example 85] | ≥ 3000 |
| < 1000 | C[C@H]1CCn2nc(C(=O)N[C@H]3COc4ccc(Cl)cc4C3)cc2O1 [Example 86] | ≥ 3000 |
| < 10000 | C[C@@H]1CCn2nc(C(=O)N[C@H]3COc4ccc(Cl)cc4C3)cc2O1 [Example 87] | ≥ 3000 |
| < 1000 | CCC1CCn2nc(C(=O)N[C@H]3COc4ccc(Cl)cc4C3)cc2O1 (stereo partly drawn) [Example 90] | 1000 to 3000 |
| < 10000 | CCC1CCn2nc(C(=O)N[C@H]3COc4ccc(C#N)cc4C3)cc2O1 (stereo partly drawn) [Example 91] | ≥ 3000 |
| < 1000 | CCCC1CCn2nc(C(=O)N[C@H]3COc4ccc(C#N)cc4C3)cc2O1 (stereo partly drawn) [Example 94] | 1000 to 3000 |
| < 1000 | N#Cc1ccc2c(c1)C[C@@H](NC(=O)c1cc3n(n1)CCC(CC1CC1)O3)CO2 (stereo partly drawn) [Example 96] | 1000 to 3000 |
| < 10000 | CCCOCC1CCn2nc(C(=O)N[C@H]3COc4ccc(C#N)cc4C3)cc2O1 (stereo partly drawn) [Example 100, N—((R)-6-cyanochroman-3-yl)-5-(propoxymethyl)-6,7-dihydro-5H-pyrazolo[5,1-b][1,3]oxazine-2-carboxamide] | ≥ 3000 |
| < 1000 | O=C(N[C@H]1COc2ccc(Cl)cc2C1)c1cc2n(n1)CCC(COCc1cccc(C(F)(F)F)n1)O2 (stereo partly drawn) [Example 105] | < 1000 |
| < 1000 | O=C(N[C@H]1COc2ccc(CC(F)F)cc2C1)c1cc2n(n1)CCC(COCC1CC1)O2 (stereo partly drawn) [Example 108] | 1000 to 3000 |
| < 1000 | O=C(N[C@H]1COc2ccc(-c3ccccn3)cc2C1)c1cc2n(n1)CCC(COCC1CC1)O2 (stereo partly drawn) [Example 110] | ≥ 3000 |
| < 1000 | CC1(COCC2CCn3nc(C(=O)N[C@H]4COc5ccc(C#N)cc5C4)cc3O2)CC1 (stereo partly drawn) [Example 112] | ≥ 3000 |
| < 1000 | O=C(N[C@H]1COc2ccc(Cl)cc2C1)c1cc2n(n1)CCC(COc1ccccn1)O2 (stereo partly drawn) [Example 117] | < 1000 |
| < 1000 | N#Cc1ccc2c(c1)C[C@@H](NC(=O)c1cc3n(n1)CCC(COc1ccccc1)O3)CO2 (stereo partly drawn) [Example 118] | < 1000 |
| < 10000 | O=C(N[C@H]1COc2ccc(Cl)cc2C1)c1cc2n(n1)CCC(CN1CCOCC1)O2 (stereo partly drawn) [Example 122] | ≥ 3000 |
| < 10000 | CCOCC1CCn2nc(C(=O)N[C@H]3COc4ccc(-c5ccccn5)cc4C3)cc2O1 (stereo partly drawn) [Example 123] | ≥ 3000 |
| < 10000 | CCOCC1CCn2nc(C(=O)N[C@H]3COc4ccc(-c5ccc(C#N)nc5)cc4C3)cc2O1 (stereo partly drawn) [Example 125] | ≥ 3000 |
| < 1000 | O=C(N[C@H]1COc2ccc(CC(F)F)cc2C1)c1cc2n(n1)CCC(COCC(F)(F)F)O2 (stereo partly drawn) [Example 126] | 1000 to 3000 |

Reference: patent US12421225B2, “Heteroaromatic amide derivative and medicament containing the same” (KAKEN PHARMACEUTICAL CO., LTD., priority 2018, dated 2025)
